Laboratory results: patent US11530226B2, “Azepane inhibitors of menin-MLL interaction” (Janssen Pharmaceutica NV, priority 2016, dated 2022)

Legend:
[1] = target: T1, terbium chelate-labeled menin / FITC-MBM1 peptide (Menin/MLL) (Homo sapiens, UniProt O00255, T541A); assay: Menin/MLL homogenous time-resolved fluorescence (HTRF) assay; format: binding; details: read-out: (2) Menin HTRF assay (IC50 (nM))
T1 construct: Menin (a. a. l-610-6×his tag) was labeled with terbium cryptate as follows
T1 sequence (O00255 with tags, fused parts or gaps T541A): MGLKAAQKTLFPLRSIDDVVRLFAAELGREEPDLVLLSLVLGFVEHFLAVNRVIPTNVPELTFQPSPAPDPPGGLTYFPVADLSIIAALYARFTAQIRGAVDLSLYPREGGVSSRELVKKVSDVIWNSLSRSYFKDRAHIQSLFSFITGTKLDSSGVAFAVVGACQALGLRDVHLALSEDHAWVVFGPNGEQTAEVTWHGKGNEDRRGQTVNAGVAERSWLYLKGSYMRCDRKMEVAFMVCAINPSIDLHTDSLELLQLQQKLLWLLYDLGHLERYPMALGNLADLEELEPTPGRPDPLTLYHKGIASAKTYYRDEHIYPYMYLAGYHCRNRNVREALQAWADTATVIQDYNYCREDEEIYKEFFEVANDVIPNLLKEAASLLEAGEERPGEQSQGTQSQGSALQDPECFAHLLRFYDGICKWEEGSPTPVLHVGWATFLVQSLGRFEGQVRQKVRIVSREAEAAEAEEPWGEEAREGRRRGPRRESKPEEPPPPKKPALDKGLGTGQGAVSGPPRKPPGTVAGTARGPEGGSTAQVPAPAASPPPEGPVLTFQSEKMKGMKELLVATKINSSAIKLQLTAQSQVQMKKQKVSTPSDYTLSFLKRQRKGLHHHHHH
Description: 2) Menin/MLL Homogenous Time-Resolved Fluorescence (HTRF) Assay
To an untreated, white 384-well microtiter plate was added 40 nL 200× test compound in DMSO and 4 μL 2× terbium chelate-labeled menin (vide infra for preparation) in assay buffer (40 mM Tris .HCl, pH 7.5, 50 mM NaCl, 1 mM DTT and 0.05% Pluronic F-127). After incubation of test compound and terbium chelate-labeled menin for 5 min at ambient temperature, 4 μL 2×FITC-MBM1 peptide (FITC-P-alanine-SARWRFPARPGT-NH2) in assay buffer was added, the microtiter plate centrifuged at 1000 rpm for 1 min and the assay mixtures incubated for 15 min at ambient temperature. The relative amount of menin ⋅FITC-MBM1 complex present in an assay mixture is determined by measuring the homogenous time-resolved fluorescence (HTRF) of the terbium/FITC donor/acceptor fluorphore pair using a BMG Pherastar plate reader (ex. 337 nm/terbium cm. 490 nm/FITC cm. 520 nm) at ambient temperature. The degree of fluorescence resonance energy transfer (the HTRF value) is expressed as the ratio of the fluorescence emission intensities of the FITC and terbium fluorophores (P^m 520 nm//F^em 490 nm). The final concentrations of reagents in the binding assay are 100 pM terbium chelate-labeled menin, 75 nM FITC-MBM1 peptide and 0.5%) DMSO in assay buffer. Dose-response titrations of test compounds are conducted using an 11 point, three-fold serial dilution scheme, starting typically at 25 μM.
Compound potencies were determined by first calculating % inhibition at each compound concentration according to equation 1: % inhibition=((HC−LC)−(HTRF^compound−LC))/(HC−LC))*100 (Eqn 1)
Where LC and HC are the HTRF values of the assay in the presence or absence of a saturating concentration of a compound that competes with FITC-MBM1 for binding to menin, and HTRF^compound is the measured HTRF value in the presence of the test compound. HC and LC HTRF values represent an average of at least 16 replicates per plate.
Where Bottom and Top are the lower and upper asymptotes of the dose-response curve, respectively, IC50 is the concentration of compound that yields 50% inhibition of signal and h is the Hill coefficient.
Preparation of Terbium cryptate labeling of Menin: Menin (a. a. l-610-6×his tag) was labeled with terbium cryptate as follows. 2 mg of Menin was buffer exchanged into 1× phosphate buffered saline. 16 uM Menin was incubated with 4-fold molar excess NHS-terbium cryptate (Cisbio Bioassays, Bedford, Mass.) for 2 hours at room temperature. The labeled protein was purified away from free label by running the reaction over a Superdex 200 Increase 10/300 GL column at 0.75 ml/min. Peak fractions were collected, aliquoted and frozen at −80° C.

MV-4-1 1 cells (MLL-AF4) = assay: Proliferation assay (spheroid-like growth, 8 d, live-cell imaging), MV-4-11; format: cell-based, human; details: Homo sapiens, MV4-11, 192 h, MV-4-11 cells, absolute IC50 from AUC of confluence, read-out: (3) Spheroid assay MV-4-11 (IC50 (μM))
Description: The anti-proliferative effect of menin/MLL protein/protein interaction inhibitor test compounds was assessed in human leukemia cell lines. The cell lines MV-4-1 1 and MOLM14 harbor MEL translocations and express the MEL fusion proteins MLL-AF4 and MLL-AF9, respectively, as well as the wildtype protein from the second allele. […] K562 was used as a control cell line containing two MLL wildtype alleles in order to exclude compounds that display general cytotoxic effects.
MV-4-1 1 and MOLM14 were cultured in RPMI-1640 (Sigma Aldrich) supplemented with 10% fetal bovine serum (HyClone), 2 mM L-glutamine (Sigma Aldrich) and 50 μg/ml gentamycin (Gibco). K562 were propagated in RPMI-1640 (Sigma Aldrich) supplemented with 20% fetal bovine serum (HyClone), 2 mM L-glutamine (Sigma Aldrich) and 50 μg/ml gentamycin (Gibco).
In order to assess the anti-proliferative effects, 1,500 MV-4-1 1, 300 MOLM14 or 750 K562 cells were seeded in 200 μl media per well in 96-well round bottom, ultra-low attachment plates (Costar, catalogue number 7007). Cell seeding numbers were chosen based on growth curves to ensure linear growth throughout the experiment. Test compounds were added at different concentrations and the DMSO content was normalized to 0.3%>. Cells were incubated for 8d at 37° C. and 5% C02. Spheroid like growth was monitored in real-time by live-cell imaging (IncuCyteZOOM, Essenbio, 4× objective) acquiring one image every four hours for 8d. Confluence (%) as a measure of spheroid size was determined using an integrated analysis tool.
In order to determine the cumulative effect of the test compounds over time, the area under the curve (AUC) in a plot of confluence against time was calculated. Confluence at the beginning of the experiment (t=0) was used as baseline for the AUC calculation.
Absolute IC50 values were calculated according to the following procedure: % Control=(AUC sample/AUC control)*100 AUC control=mean AUC of control values(cells without compound/DMSO as vehicle control)
A non-linear curve fit was applied using the least squares (ordinary) fit method to the plot of % control versus compound concentration. Based on this, the absolute IC50 value (half maximal inhibitory concentration of the test compound causing an anti-proliferative effect of 50% relative to the vehicle control) was calculated.

IC50 [1] [nM]	IC50 (MV-4-1 1 cells (MLL-AF4)) [µM]	Compound
40	2.1	FC(F)(F)Cc1cc2c(N3CCC[C@@H](NCc4cccnc4)CC3)ncnc2s1 (single isomer, unassigned) [Compound 29]
186	4.45	FC(F)(F)Cc1cc2c(N3CCC[C@@H](NCc4ccnnc4)CC3)ncnc2s1 (single isomer, unassigned) [Compound 30]
170	2.5	CC(C)[C@@H](N[C@H]1CCCN(c2ncnc3sc(CC(F)(F)F)cc23)CC1)C1CNC1 (single isomer, unassigned) [Compound 36]
103	1.9	C[C@H]1CCN(c2ncnc3sc(CC(F)(F)F)cc23)CC[C@H]1NCc1ccccc1 (single isomer, unassigned) [Compound 68A]
55	1.6	Fc1ccc(CNC2CCCN(c3ncnc4sc(CC(F)(F)F)cc34)CC2)c(F)c1 (stereo not shown) [Compound 7]
64	1.6	Fc1ccccc1CNC1CCCN(c2ncnc3sc(CC(F)(F)F)cc23)CC1 (stereo not shown) [Compound 8]
36	1.4	Cc1ccc(CNC2CCCN(c3ncnc4sc(CC(F)(F)F)cc34)CC2)c(C)c1 (stereo not shown) [Compound 9]
33	1.3	CNCc1cccc(CNC2CCCN(c3ncnc4sc(CC(F)(F)F)cc34)CC2)c1 (stereo not shown) [Compound 17]
563	4.7	COc1ccc(C)cc1CNC1CCCN(c2ncnc3sc(CC(F)(F)F)cc23)CC1 (stereo not shown) [Compound 18]
41	2	Cc1ccccc1CNC1CCCN(c2ncnc3sc(CC(F)(F)F)cc23)CC1 (stereo not shown) [Compound 19]
53	1.2	Fc1cccc(CNC2CCCN(c3ncnc4sc(CC(F)(F)F)cc34)CC2)c1 (stereo not shown) [Compound 24]
137	4.3	FC(F)(F)Cc1cc2c(N3CCCC(OCc4ccccc4)CC3)ncnc2s1 (stereo not shown) [Compound 44]
45	1.1	CNC(=O)c1ccc(CNC2CCCN(c3ncnc4sc(CC(F)(F)F)cc34)CC2)cc1 (stereo not shown) [Compound 49]

Continued, compound first:

Compound	IC50 [1] [nM]	IC50 (MV-4-1 1 cells (MLL-AF4)) [µM]
CC(C)[C@H](N[C@@H]1CCCN(c2ncnc3sc(CC(F)(F)F)cc23)CC1)C1CNC1 (single isomer, unassigned) [Compound 31]	34	1.4
CC(C)[C@H](NC1CCCN(c2ncnc3sc(CC(F)(F)F)cc23)CC1)C1CNC1 (single isomer, unassigned) [Compound 33]	27	2
CC(C)[C@@H](NC1CCCN(c2ncnc3sc(CC(F)(F)F)cc23)CC1)C1CNC1 (single isomer, unassigned) [Compound 34]	216	3.2
CN(C)CCN(Cc1ccccc1)[C@@H]1CCCN(c2ncnc3sc(CC(F)(F)F)cc23)CC1 (single isomer, unassigned) [Compound 57A]	194	2.8
CN(C)CCN(Cc1ccccc1)[C@H]1CCCN(c2ncnc3sc(CC(F)(F)F)cc23)CC1 (single isomer, unassigned) [Compound 57B]	222	4.4
Cn1cc(CN(Cc2ccccc2)[C@@H]2CCCN(c3ncnc4sc(CC(F)(F)F)cc34)CC2)cn1 (single isomer, unassigned) [Compound 60A]	493	5.5
Cn1cc(CN(Cc2ccccc2)[C@H]2CCCN(c3ncnc4sc(CC(F)(F)F)cc34)CC2)cn1 (single isomer, unassigned) [Compound 60B]	295	2.4
Cn1cc2c(n1)CCC[C@@H]2N[C@@H]1CCCN(c2ncnc3sc(CC(F)(F)F)cc23)CC1 (single isomer, unassigned) [Compound 66B]	164	3.8
OCCN(Cc1ccccc1)C1CCCN(c2ncnc3sc(CC(F)(F)F)cc23)CC1 (stereo not shown) [Compound 50]	185	2.3
CN(C)CCCN(Cc1ccccc1)C1CCCN(c2ncnc3sc(CC(F)(F)F)cc23)CC1 (stereo not shown) [Compound 53]	204	2.1
